Data as given in US4675187A, “BBM-1675, a new antibiotic complex” (priority 1985, dated 1987).
“And” between values parts separate entries of the source, which are not always exact repeats. Identical values can stand only once. Like-named read-outs stand apart in the source and are kept apart here.

Assays:
toxicity in mice = conditions: mouse, in vivo
P-388 leukemia = assay: antitumor activity, intravenously implanted P-388 leukemia; assay type: in vivo, mice
[1] = ip qd 1→11, doses as T/C lines, same order
[2] = ip qd 1→9, doses as T/C lines, same order
[3] = iv days 1,4,7, doses as MST lines, same order

Protocol for B16 melanoma: (§1) Lymphocytic leukemia P-388, lymphoid leukemia L-1210, melanotic melanoma B16 and Lewis lung carcinoma were implanted intraperitoneally into male BDF1 mice at an inoculum size of 10^6, 10^5, 5×10^5 and 10^6 cells per mouse, respectively. Graded doses of test compounds were administered to the mice intraperitoneally 24 hours after the tumor inoculation.
(§2) Death or survival of the treated and non-treated mice was recorded daily, and the median survival time (MST) was calculated for each of the test (T) and control (C) groups.
Protocol for Lewis lung carcinoma: as §1, §2

Compound | LD50 (toxicity in mice; ip, LD50, multiple dose (qd 1→9) i.p.) | LD50 (toxicity in mice; ip, LD50, single dose i.p.) | LD50 (toxicity in mice; iv, LD50, single dose i.v.) | T/C (Lewis lung carcinoma; ip qd 1→11, 0.003 mg/kg/day) | MST (Lewis lung carcinoma; [1]) | Survivors on day 5 (Lewis lung carcinoma; [1]) | Survivors on day 45 (Lewis lung carcinoma; [1]) | Average wt. change on day 5 (Lewis lung carcinoma; mouse, in vivo, ip) | Survivors on day 5 (Lewis lung carcinoma; mouse, in vivo, ip) | T/C (B16 melanoma; ip qd 1→9, 0.003 mg/kg/day) | Average wt. change on day 5 (B16 melanoma; [2]) | MST (B16 melanoma; [2]) | Survivors on day 5 (B16 melanoma; [2]) | Survivors on day 45 (B16 melanoma; [2]) | T/C (P-388 leukemia; iv days 1,4,7, 1 mg/kg/day) | T/C (P-388 leukemia; iv days 1,4,7, 10 mg/kg/day) | Survivors on day 5 (P-388 leukemia; [3]) | Survivors on day 45 (P-388 leukemia; [3])
CO[C@@H]1[C@H](O)C[C@@H](O[C@@H]2C[C@H](Oc3cc4cc5c(c(O)c4c(O)c3C)C(=O)[C@@H](O[C@H]3C[C@@H](O[C@H]4C[C@@H](O[C@H]6C[C@](C)(O)[C@@H](OC(C)=O)[C@H](C)O6)[C@H](O)[C@@H](C)O4)[C@H](O)[C@@H](C)O3)[C@H]([C@H](OC)C(=O)[C@@H](O)[C@@H](C)O)C5)O[C@H](C)[C@@H]2OC(C)=O)O[C@@H]1C [Chromomycin A3, chromomycin A3] | 0.23 mg/kg | 0.81 mg/kg | 0.41 mg/kg | 105% | 21.5 days and 17.0 days and 11.5 days | 6/6 | 1/6 and 0/5 and 0/6 | +1.7 g | 5/5 | 109% | +2.2 g | 25.5 days and 23.0 days and 21.0 days and 18.0 days | 6/6 | 0/6 |  |  |  | 
COc1cccc2c1C(=O)c1c(O)c3c(c(O)c1C2=O)C[C@@](O)(C(=O)CO)C[C@@H]3O[C@H]1C[C@H](N)[C@H](O)[C@H](C)O1 [Adriamycin, adriamycin] |  |  |  |  |  |  |  |  |  |  |  |  |  |  | 100% | 100% | 0/6 and 6/6 | 0/6
